“Also recorded” adds a separate entry of the source. Where two headings read alike, the source gives them in different places.
Key:
Hst2 [1] = target: T1, Hst2 (Saccharomyces cerevisiae, UniProt P53686); assay: SAR analysis, fluorigenic assay at 50 and 500 μM; type: biochemical; settings: relative to control
Description: Structure Activity Relationship (SAR) Analysis.

human SIRT3 = target: T2, human SIRT3 (Homo sapiens, UniProt Q9NTG7); assay: Inhibition assay against human SIRT3 (fluorigenic); settings: for inhibitory activity against human SIRT3 (in words): 50 or 100 μM compound
T2 sequence (Q9NTG7 1-399): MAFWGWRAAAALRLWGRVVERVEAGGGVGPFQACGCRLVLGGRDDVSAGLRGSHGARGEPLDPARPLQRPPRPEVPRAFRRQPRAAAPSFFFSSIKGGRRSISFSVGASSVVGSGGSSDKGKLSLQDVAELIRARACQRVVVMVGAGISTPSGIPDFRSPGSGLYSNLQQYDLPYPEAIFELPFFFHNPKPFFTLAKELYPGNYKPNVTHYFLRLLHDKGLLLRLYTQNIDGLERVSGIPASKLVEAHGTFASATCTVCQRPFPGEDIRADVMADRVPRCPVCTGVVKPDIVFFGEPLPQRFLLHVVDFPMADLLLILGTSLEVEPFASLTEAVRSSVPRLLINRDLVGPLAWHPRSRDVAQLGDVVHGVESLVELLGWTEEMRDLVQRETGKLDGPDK
Method: (§1) Human recombinant SIRT3 was purchased from Enzo Life Sciences.
(§2) Inhibition Assay Against Human SIRT2 and SIRT3. […] Two independent measurements were performed for each compound and the average and standard deviation are reported.

human SIRT2 = target: T3, human SIRT2 (Homo sapiens, UniProt Q8IXJ6); assay: Inhibition assay against human SIRT2 (fluorigenic); settings: for inhibitory activity against human SIRT2 (in words): 50 or 100 μM compound
T3 sequence (Q8IXJ6 1-352 isoform Q8IXJ6-2): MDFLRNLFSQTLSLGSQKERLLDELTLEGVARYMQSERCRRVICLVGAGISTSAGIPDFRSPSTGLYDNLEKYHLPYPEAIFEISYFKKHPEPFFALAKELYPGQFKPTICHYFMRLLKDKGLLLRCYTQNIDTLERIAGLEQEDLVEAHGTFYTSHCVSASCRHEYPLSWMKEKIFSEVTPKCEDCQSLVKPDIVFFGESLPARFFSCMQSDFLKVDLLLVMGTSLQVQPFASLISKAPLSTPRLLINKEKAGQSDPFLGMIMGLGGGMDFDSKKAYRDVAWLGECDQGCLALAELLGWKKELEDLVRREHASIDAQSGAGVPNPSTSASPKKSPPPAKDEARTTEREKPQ
Method: as §1, §2

Hst2 [2] = target: T1, Hst2; assay: Competition assay (inhibition mode versus NAD+ and acetyl-lysine substrate); type: biochemical; settings: for α (mixed inhibition model): with respect to NAD+
Method: Competition Assay. […] The fluorigenic assay described above was used with a fixed enzyme concentration of 1 μM. When competition with NAD^+ was being tested, the FLUOR DE LYS-SIRT1 deacetylase substrate was held at a constant concentration of 100 μM and the NAD^+ was titrated from ⅓-5× KmNAD+ (5-80 μM). […] The inhibitors were titrated from ˜½-several times their estimated Ki as indicated. The reaction time was 15 minutes, and each condition was tested in duplicate. The Km, kcat and kcat/Km values were determined by direct fit of the data in SIGMAPLOT (Systat Software, Point Richmond, Calif.) to the Michealis-Menten equation. The Ki and Kis (the slope and intercept inhibition constants, respectively) and the competition type were also determined by a direct fit in SIGMAPLOT to both partial and full competitive, noncompetitive, uncompetitive and mixed competition models. Best-fit models were determined by several statistical methods including R^2, AICs and Sy.x as well as empirical evaluation of α and β values.
To determine the mechanism of inhibition of the compounds identified by HTS and to gain insight as to where these compounds may bind to the enzyme, inhibition modes were determined by varying each of the substrates with the other maintained at a fixed, saturating concentration (Table 11).

full-length human SIRT1 = target: T4, full-length human SIRT1 (Homo sapiens, UniProt Q96EB6); assay: IC50 determination, fluorigenic deacetylase assay, FL SIRT1
T4 sequence (Q96EB6 1-747): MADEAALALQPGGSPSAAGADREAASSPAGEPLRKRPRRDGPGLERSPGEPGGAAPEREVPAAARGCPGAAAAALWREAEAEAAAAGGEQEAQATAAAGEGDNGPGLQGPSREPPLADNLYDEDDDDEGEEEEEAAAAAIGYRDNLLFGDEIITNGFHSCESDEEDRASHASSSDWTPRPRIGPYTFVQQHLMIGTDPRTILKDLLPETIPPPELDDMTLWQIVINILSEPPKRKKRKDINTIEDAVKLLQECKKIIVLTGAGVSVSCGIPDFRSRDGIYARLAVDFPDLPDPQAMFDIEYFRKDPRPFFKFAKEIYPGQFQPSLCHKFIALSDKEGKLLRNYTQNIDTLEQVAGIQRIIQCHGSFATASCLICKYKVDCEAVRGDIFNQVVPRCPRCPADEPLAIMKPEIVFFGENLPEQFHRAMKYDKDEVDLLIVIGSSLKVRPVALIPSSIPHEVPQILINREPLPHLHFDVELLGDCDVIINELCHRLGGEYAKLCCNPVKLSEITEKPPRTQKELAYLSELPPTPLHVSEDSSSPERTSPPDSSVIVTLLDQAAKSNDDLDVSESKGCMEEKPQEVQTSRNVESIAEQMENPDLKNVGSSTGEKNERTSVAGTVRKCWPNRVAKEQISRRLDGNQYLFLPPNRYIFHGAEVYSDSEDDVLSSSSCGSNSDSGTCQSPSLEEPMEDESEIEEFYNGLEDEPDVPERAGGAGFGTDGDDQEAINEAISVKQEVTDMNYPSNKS
Method: Cells were harvested and lysed by sonication in buffer containing 50 mM Tris, pH 7.5, 200 mM NaCl, 5 mM imidizole, 10 mM β-mercaptoethanol (BME) and 0.1 mg/mL PMSF. Soluble FL SIRT1 was purified by Ni-NTA (Qiagen, Valencia, Calif.) in a buffer containing 50 mM Tris, pH 7.5, 300 mM NaCl, 10 mM BME, 5% glycerol and 30-600 mM imidizole followed by SUPERDEX-200 gel filtration in buffer containing 50 mM Tris, pH 7.5, 150 mM NaCl, and 10 mM BME. FL SIRT1 eluted between the 670 kDa and 158 kDa globular protein standards. Since SIRT1 is known to aggregate after several days at 4° C., the protein was aliquoted and frozen at −80° C. for use in fluorigenic assays.
(§3) IC50 Determination. […] The dose-response curves were then fit to one-site competition or sigmoidal-dose response curves as appropriate in [sequence] PRISM (GraphPad Software, La Jolla, Calif.) and the IC50 was determined. Three independent IC50 measurements were performed for each compound and the average and standard deviation are reported.

Hst2 [3] = target: T1, Hst2; assay: IC50 determination, fluorigenic deacetylase assay, Hst2
Method: as §3
(§4) The resulting deacetylase activity for the three experiments was averaged and reported as a percentage relative to control wells containing no inhibitor.

Hst2 [4] = target: T1, Hst2
Method: as §3, §4

[5] = read-out: percent of residual enzyme activity, SIRT3
[6] = read-out: percent of residual enzyme activity, SIRT2
[7] = substrate NAD+ varied, acetyl-lysine substrate 100 μM
[8] = substrate NAD+ varied, read-out: Ki
[9] = substrate acetyl-lysine varied, NAD+ 160 μM
[10] = substrate acetyl-lysine varied, read-out: Ki
[11] = read-out: SIRT1 IC50, Table 5, 240 μM NAD+, 200 μM substrate, 1 μM FL SIRT1, 15 min

T1 sequence (P53686 1-294): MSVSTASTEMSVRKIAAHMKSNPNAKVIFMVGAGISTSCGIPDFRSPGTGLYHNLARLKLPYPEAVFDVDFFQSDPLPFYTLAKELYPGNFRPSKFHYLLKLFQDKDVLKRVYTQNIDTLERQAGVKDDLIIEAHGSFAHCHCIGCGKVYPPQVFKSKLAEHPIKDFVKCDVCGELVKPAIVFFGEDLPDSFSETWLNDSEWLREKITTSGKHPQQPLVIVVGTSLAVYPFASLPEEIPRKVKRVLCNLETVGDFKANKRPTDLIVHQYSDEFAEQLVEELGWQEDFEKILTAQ

| Compound | remaining activity at 50 µM (human SIRT3; [5]) [%] | inhibitory activity against human SIRT2 (in words) (human SIRT2) | remaining activity at 50 µM (human SIRT2; [6]) [%] | kcat (Hst2 [2]; substrate NAD+ varied) [s⁻¹] | Inhibition Mechanism (Hst2 [2]; [7]) | Ki (Hst2 [2]; [8]) [µM] | kcat (Hst2 [2]; substrate acetyl-lysine varied) [s⁻¹] | Inhibition Mechanism (Hst2 [2]; [9]) | Ki (Hst2 [2]; [10]) [µM] | IC50 (full-length human SIRT1; [11]) [µM] | IC50 values (range in words) (Hst2 [3]; Table 5) | inhibitory activity against human SIRT3 (in words) (human SIRT3) | α (mixed inhibition model) (Hst2 [2]) | other results |
| --- | --- | --- | --- | --- | --- | --- | --- | --- | --- | --- | --- | --- | --- | --- |
| CCc1ccc(OCCCC(=O)Oc2ccc3c(c2)oc(=O)c2ccccc23)cc1 [Compound 12a, 4-(4-Ethyl-phenoxy)-butyric acid 6-oxo-6H-benzo[c]chromen-3-yl ester] | 89 ± 3.3 | potent inhibitor | 2.4 ± 0.3 | 0.025 ± 0.005 | fully non-competitive; also recorded: NC (full) | 1.2 ± 0.2 | 0.0163 ± 0.00067 | partial non-competitive | 6.3 ± 1.7 | 6 ± 0.4 | low micromolar | – | – | activity at 50 µM (Hst2 [1]; Table 8, 50 μM compound): < 1%; activity at 500 µM (Hst2 [1]; Table 8, 500 μM compound, read-out: % Activity 500): < 1%; IC50 (Hst2 [3]; read-out: Hst2 IC50, Table 5, 160 μM NAD+, 100 μM substrate, 1 μM Hst2, 15 min): 6.5 ± 1.3 µM |
| O=C(O)CCN1Cc2ccccc2C1=O [Compound 13a, 3-(1-Oxo-1,3-dihydro-isoindol-2-yl)-propionic acid] | 91 ± 4.3 | only weak inhibitory activity | 89 ± 1.8 | 0.0122 ± 0.00217 | fully non-competitive; also recorded: NC (full) | 30 ± 6 | 0.0167 ± 0.0017 | fully non-competitive; also recorded: NC (full) | 39 ± 7 | 80 ± 5 | low micromolar | only weak inhibitory activity | – | – |
| S=c1ccccn1[O][Zn][O]n1ccccc1=S [Compound 11b, zinc pyrithione] | – | – | – | 0.0145 ± 0.00083 | fully mixed | – | 0.0217 ± 0.0033 | fully non-competitive; also recorded: NC (full) | – | – | – | – | 2.2 | Ki (Hst2 [2]; Ki, substrate NAD+ varied): 0.26 ± 0.08 µM; Ki (Hst2 [2]; Ki, substrate acetyl-lysine varied): 0.7 ± 0.1 µM; IC50 (full-length human SIRT1): 2.7 ± 0.2 µM; IC50 (Hst2 [3]): 0.65 ± 0.05 µM; IC50 values (range in words) (Hst2 [3]): sub-micromolar |
| COCC#CC1c2cc(O)c(OC)cc2CCN1C (stereo not drawn) [Compound 15a, 6-Methoxy-1-(3-methoxy-prop-1-ynyl)-2-methyl-1,2,3,4-tetrahydro-isoquinolin-7-ol] | – | only weak inhibitory activity | – | 0.0137 ± 0.00233 | fully mixed | – | 0.0167 ± 0.0033 | fully non-competitive; also recorded: NC (full) | – | 570 ± 200 | – | only weak inhibitory activity | 2.6 | activity at 500 µM (Hst2 [1]; Table 7, 500 μM compound, read-out: % Activity 500 μM): 5%; remaining activity at 100 µM (human SIRT3; [5]): 96.4 ± 0.5%; remaining activity at 100 µM (human SIRT2; [6]): 92.1 ± 1.5%; IC50 lower than that of compound 15b (Hst2 [4]): about 2 fold |
